Legend:
Format in all cases: in vivo
[1] = test system: barnyardgrass (Echinochloa crus-galli); assay: Test G Pre-Emergence Protocol; details: Echinochloa crus-galli, pre-emergence, 312 h, evaluated after 13 days; for pest or weed control at 15.625 g/ha: 15.625 g ai/ha, read-out: Barnyard grass damage rating (100=total damage to plant; 0=no damage to plant); for pest or weed control at 62.5 g/ha: 62.5 g ai/ha, 100=total damage to plant, 0=no damage to plant, read-out: plant damage rating, Barnyardgrass; for pest or weed control at 250 g/ha: 250 g ai/ha, read-out: Barnyardgrass damage rating (100=total damage to plant; 0=no damage to plant)
Method in brief: (§1)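 Spraying took place one day after sowing, at 15.625, 62.5 or 250 g/ha, using an acetone/water (50:50) spray solution containing 0.5% Tween 20. Plants were kept under glasshouse conditions (24/16 °C, 14 h light, 65% humidity, watered twice daily), and injury was rated 0–100 at day 13.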

[2] = test system: corn (Zea mays); assay: Test G Pre-Emergence Protocol; details: Zea mays, pre-emergence, 312 h, evaluated after 13 days; for plant injury at 15.625 g/ha: 15.625 g ai/ha; for plant injury at 15.625 g/ha / plant injury at 250 g/ha: read-out: Corn damage rating (100=total damage to plant; 0=no damage to plant); for plant injury at 62.5 g/ha: 62.5 g ai/ha, 100=total damage to plant, 0=no damage to plant, read-out: plant damage rating, Corn; for plant injury at 250 g/ha: 250 g ai/ha
Method in brief: as §1

[3] = test system: giant foxtail (Setaria faberi); assay: Test G Pre-Emergence Protocol; details: Setaria faberi, pre-emergence, 312 h, evaluated after 13 days; for pest or weed control at 15.625 g/ha: 15.625 g ai/ha; for pest or weed control at 15.625 g/ha / pest or weed control at 250 g/ha: read-out: Foxtail, Giant damage rating (100=total damage to plant; 0=no damage to plant); for pest or weed control at 62.5 g/ha: 62.5 g ai/ha, 100=total damage to plant, 0=no damage to plant, read-out: plant damage rating, Foxtail, Giant; for pest or weed control at 250 g/ha: 250 g ai/ha
Method in brief: as §1

[4] = test system: ivy-leaved morning glory (Ipomoea hederacea); assay: Test G Pre-Emergence Protocol; details: Ipomoea, pre-emergence, 312 h, evaluated after 13 days; for pest or weed control at 15.625 g/ha: 15.625 g ai/ha, read-out: Morning-glory, Ivy-leaved damage rating (100=total damage to plant; 0=no damage to plant); for pest or weed control at 62.5 g/ha: 62.5 g ai/ha, 100=total damage to plant, 0=no damage to plant, read-out: plant damage rating, Morningglory, Ivy-leaved; for pest or weed control at 250 g/ha: 250 g ai/ha, read-out: Morningglory, Ivy-leaved damage rating (100=total damage to plant; 0=no damage to plant)
Method in brief: as §1

[5] = test system: redroot pigweed (Amaranthus retroflexus); assay: Test G Pre-Emergence Protocol; details: Amaranthus retroflexus, pre-emergence, 312 h, evaluated after 13 days; for pest or weed control at 15.625 g/ha: 15.625 g ai/ha; for pest or weed control at 15.625 g/ha / pest or weed control at 250 g/ha: read-out: Pigweed, Redroot damage rating (100=total damage to plant; 0=no damage to plant); for pest or weed control at 62.5 g/ha: 62.5 g ai/ha, 100=total damage to plant, 0=no damage to plant, read-out: plant damage rating, Pigweed, Redroot; for pest or weed control at 250 g/ha: 250 g ai/ha
Method in brief: as §1

[6] = test system: velvetleaf (Abutilon theophrasti); assay: Test G Pre-Emergence Protocol; details: Abutilon theophrasti, pre-emergence, 312 h, evaluated after 13 days; for pest or weed control at 15.625 g/ha: 15.625 g ai/ha; for pest or weed control at 15.625 g/ha / pest or weed control at 250 g/ha: read-out: Velvetleaf damage rating (100=total damage to plant; 0=no damage to plant); for pest or weed control at 62.5 g/ha: 62.5 g ai/ha, 100=total damage to plant, 0=no damage to plant, read-out: plant damage rating, Velvetleaf; for pest or weed control at 250 g/ha: 250 g ai/ha
Method in brief: as §1

[7] = test system: barnyardgrass (Echinochloa crus-galli); assay: Test G Post-Emergence Protocol; details: Echinochloa crus-galli, post-emergence, 312 h; for pest or weed control at 15.625 g/ha: 15.625 g ai/ha, evaluated after 13 days (100=total damage to plant; 0=no damage to plant), read-out: Barnyardgrass damage rating; for pest or weed control at 62.5 g/ha: 62.5 g ai/ha, read-out: Barnyardgrass damage rating (100=total damage to plant; 0=no damage to plant); for pest or weed control at 62.5 g/ha / pest or weed control at 250 g/ha: evaluated after 13 days; for pest or weed control at 250 g/ha: 250 g ai/ha, read-out: damage to plant, Barnyardgrass (100=total damage to plant; 0=no damage to plant)
Method in brief: (§2)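 Foliar application was made 8 days after sowing, using an aqueous spray of the active in acetone/water (50:50) with 0.5% Tween 20, at doses of 15.625, 62.5 or 250 g/ha. Injury was assessed 13 days later, where 100 meant the plant was fully damaged.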

[8] = test system: corn (Zea mays); assay: Test G Post-Emergence Protocol; details: Zea mays, post-emergence, 312 h; for plant injury at 15.625 g/ha: 15.625 g ai/ha, evaluated after 13 days (100=total damage to plant; 0=no damage to plant), read-out: Corn damage rating; for plant injury at 62.5 g/ha: 62.5 g ai/ha, read-out: Corn damage rating (100=total damage to plant; 0=no damage to plant); for plant injury at 62.5 g/ha / plant injury at 250 g/ha: evaluated after 13 days; for plant injury at 250 g/ha: 250 g ai/ha, read-out: damage to plant, Corn (100=total damage to plant; 0=no damage to plant)
Method in brief: as §2

[9] = test system: giant foxtail (Setaria faberi); assay: Test G Post-Emergence Protocol; details: Setaria faberi, post-emergence, 312 h; for pest or weed control at 15.625 g/ha: 15.625 g ai/ha, evaluated after 13 days (100=total damage to plant; 0=no damage to plant), read-out: Foxtail, Giant damage rating; for pest or weed control at 62.5 g/ha: 62.5 g ai/ha, read-out: Foxtail, Giant damage rating (100=total damage to plant; 0=no damage to plant); for pest or weed control at 62.5 g/ha / pest or weed control at 250 g/ha: evaluated after 13 days; for pest or weed control at 250 g/ha: 250 g ai/ha, read-out: damage to plant, Foxtail, Giant (100=total damage to plant; 0=no damage to plant)
Method in brief: as §2

[10] = test system: ivy-leaved morning glory (Ipomoea hederacea); assay: Test G Post-Emergence Protocol; details: Ipomoea, post-emergence, 312 h; for pest or weed control at 15.625 g/ha: 15.625 g ai/ha, evaluated after 13 days (100=total damage to plant; 0=no damage to plant), read-out: Morningglory, Ivy-leaved damage rating; for pest or weed control at 62.5 g/ha: 62.5 g ai/ha, read-out: Morningglory, Ivy-leaved damage rating (100=total damage to plant; 0=no damage to plant); for pest or weed control at 62.5 g/ha / pest or weed control at 250 g/ha: evaluated after 13 days; for pest or weed control at 250 g/ha: 250 g ai/ha, read-out: damage to plant, Morningglory, Ivy-leaved (100=total damage to plant; 0=no damage to plant)
Method in brief: as §2

[11] = test system: redroot pigweed (Amaranthus retroflexus); assay: Test G Post-Emergence Protocol; details: Amaranthus retroflexus, post-emergence, 312 h; for pest or weed control at 15.625 g/ha: 15.625 g ai/ha, evaluated after 13 days (100=total damage to plant; 0=no damage to plant), read-out: Pigweed, Redroot damage rating; for pest or weed control at 62.5 g/ha: 62.5 g ai/ha, read-out: Pigweed, Redroot damage rating (100=total damage to plant; 0=no damage to plant); for pest or weed control at 62.5 g/ha / pest or weed control at 250 g/ha: evaluated after 13 days; for pest or weed control at 250 g/ha: 250 g ai/ha, read-out: damage to plant, Pigweed, Redroot (100=total damage to plant; 0=no damage to plant)
Method in brief: as §2

[12] = test system: velvetleaf (Abutilon theophrasti); assay: Test G Post-Emergence Protocol; details: Abutilon theophrasti, post-emergence, 312 h; for pest or weed control at 15.625 g/ha: 15.625 g ai/ha, evaluated after 13 days (100=total damage to plant; 0=no damage to plant), read-out: Velvetleaf damage rating; for pest or weed control at 62.5 g/ha: 62.5 g ai/ha, read-out: Velvetleaf damage rating (100=total damage to plant; 0=no damage to plant); for pest or weed control at 62.5 g/ha / pest or weed control at 250 g/ha: evaluated after 13 days; for pest or weed control at 250 g/ha: 250 g ai/ha, read-out: damage to plant, Velvetleaf (100=total damage to plant; 0=no damage to plant)
Method in brief: as §2

| Structure (SMILES) | pest or weed control at 15.625 g/ha [1] [%] | pest or weed control at 62.5 g/ha [1] [%] | pest or weed control at 250 g/ha [1] [%] | plant injury at 15.625 g/ha [2] [%] | plant injury at 62.5 g/ha [2] [%] | plant injury at 250 g/ha [2] [%] | pest or weed control at 15.625 g/ha [3] [%] | pest or weed control at 62.5 g/ha [3] [%] | pest or weed control at 250 g/ha [3] [%] | pest or weed control at 15.625 g/ha [4] [%] | pest or weed control at 62.5 g/ha [4] [%] | pest or weed control at 250 g/ha [4] [%] | pest or weed control at 15.625 g/ha [5] [%] | pest or weed control at 62.5 g/ha [5] [%] | pest or weed control at 250 g/ha [5] [%] | pest or weed control at 15.625 g/ha [6] [%] | pest or weed control at 62.5 g/ha [6] [%] | pest or weed control at 250 g/ha [6] [%] | pest or weed control at 15.625 g/ha [7] [%] | pest or weed control at 62.5 g/ha [7] [%] | also measured |
| --- | --- | --- | --- | --- | --- | --- | --- | --- | --- | --- | --- | --- | --- | --- | --- | --- | --- | --- | --- | --- | --- |
| COC(=O)c1sccc1NC(=O)[C@@H]1C(=O)N(C)C[C@H]1c1ccc(C(F)(F)F)cc1 (racemic) [Compound 1621] | 0 | 0 | 0 | 0 | 0 | 0 | 0 | 0 | 0 | 0 | 0 | 0 | 0 | 0 | 0 | 0 | 0 | 0 | 10 | 30 | pest or weed control at 250 g/ha [7]: 30%; plant injury at 15.625 g/ha [8]: 0%; plant injury at 62.5 g/ha [8]: 0%; plant injury at 250 g/ha [8]: 0%; pest or weed control at 15.625 g/ha [9]: 10%; pest or weed control at 62.5 g/ha [9]: 40%; pest or weed control at 250 g/ha [9]: 40%; pest or weed control at 15.625 g/ha [10]: 0%; pest or weed control at 62.5 g/ha [10]: 0%; pest or weed control at 250 g/ha [10]: 0%; pest or weed control at 15.625 g/ha [11]: 0%; pest or weed control at 62.5 g/ha [11]: 20%; pest or weed control at 250 g/ha [11]: 10%; pest or weed control at 15.625 g/ha [12]: 0%; pest or weed control at 62.5 g/ha [12]: 0%; pest or weed control at 250 g/ha [12]: 0% |
| Cc1ncsc1NC(=O)[C@@H]1C(=O)N(C)C[C@H]1c1ccc(C(F)(F)F)cc1 (racemic) [Compound 1635] | 0 | 0 | 0 | 0 | 0 | 0 | 0 | 0 | 0 | 0 | 0 | 0 | 0 | 0 | 0 | 0 | 0 | 0 | 0 | 0 | pest or weed control at 250 g/ha [7]: 30%; plant injury at 15.625 g/ha [8]: 0%; plant injury at 62.5 g/ha [8]: 0%; plant injury at 250 g/ha [8]: 0%; pest or weed control at 15.625 g/ha [9]: 0%; pest or weed control at 62.5 g/ha [9]: 10%; pest or weed control at 250 g/ha [9]: 40%; pest or weed control at 15.625 g/ha [10]: 0%; pest or weed control at 62.5 g/ha [10]: 0%; pest or weed control at 250 g/ha [10]: 0%; pest or weed control at 15.625 g/ha [11]: 0%; pest or weed control at 62.5 g/ha [11]: 0%; pest or weed control at 250 g/ha [11]: 10%; pest or weed control at 15.625 g/ha [12]: 0%; pest or weed control at 62.5 g/ha [12]: 0%; pest or weed control at 250 g/ha [12]: 0% |
| CN1C[C@H](c2ccc(C(F)(F)F)cc2)[C@@H](C(=O)Nc2ccc(F)cn2)C1=O (racemic) [Compound 1450] | 10 | 30 | 70 | 0 | 0 | 0 | 40 | 70 | 90 | 0 | 0 | 0 | 0 | 0 | 80 | 0 | 0 | 0 | 0 | 10 | pest or weed control at 250 g/ha [7]: 20%; plant injury at 15.625 g/ha [8]: 0%; plant injury at 62.5 g/ha [8]: 10%; plant injury at 250 g/ha [8]: 10%; pest or weed control at 15.625 g/ha [9]: 0%; pest or weed control at 62.5 g/ha [9]: 30%; pest or weed control at 250 g/ha [9]: 60%; pest or weed control at 15.625 g/ha [10]: 0%; pest or weed control at 62.5 g/ha [10]: 10%; pest or weed control at 250 g/ha [10]: 20%; pest or weed control at 15.625 g/ha [11]: 0%; pest or weed control at 62.5 g/ha [11]: 0%; pest or weed control at 250 g/ha [11]: 30%; pest or weed control at 15.625 g/ha [12]: 0%; pest or weed control at 62.5 g/ha [12]: 0%; pest or weed control at 250 g/ha [12]: 0% |

From patent US12077503B2, “Substituted cyclic amides and their use as herbicides” (FMC CORPORATION, priority 2015, dated 2024)
